Where “and” joins values, the source holds several entries; their conditions need not be identical. Identical values can stand only once.
Legend:
Assay type in all cases: in vivo
[1] = system: Sox9 gene; experiment: Rat closed femur fracture model, cartilage-related marker gene expression (real-time PCR); conditions: 0.5 mg/kg/day continuous s.c. (osmotic pump) for one week; 7 days after fracture; normalized to ubiquitin C
Procedure: In accordance with the method of Example 2, a rat closed fracture model was prepared. For an animal in a Sham group, a pin only was inserted into the femur, and a bone fracture was not prepared. An administration solution of CNP derivative A was prepared so as to be a dosage corresponding to 0.5 mg/kg/day, and then loaded into an osmotic pump (model 2001, Alzet). The osmotic pump was buried under the skin of the neck back of the animal, and continuous subcutaneous administration was performed for one week. Vehicle was continuously subcutaneously administered to the control group. 7 days after the preparation of the bone fracture, the animal was subjected to isoflurane inhalation anesthesia, retained in a supine position to open the abdomen, and then bled for the euthanasia. The left femur was resected, and immersed into RNAlater (Life Technologies Corporation). The diaphysis or part of the callus was cut out from the femur that had been refrigerated in RNAlater for one day or more. To the cut-out diaphysis or part of the callus, QIAzol (QIAGEN) was added, and the resultant was crushed with tungsten beads. […] The gene expression level was measured by a real-time PCR method using TaqMan Gene Expression Master Mix (Life Technologies Corporation). The measured value was standardized by the gene expression level of ubiquitin-C. […]

[2] = system: rat femur fracture model; experiment: Rat femur fracture model, tissue observation in the femur fracture site
Procedure: (§1) A fracture model was surgically prepared at the left femoral diaphysis of a 6-week-old female SD strain (Crl: CD) IGS rat. A barbital-based anesthetic agent (Somnopentyl®, Kyoritsu Seiyaku Corporation) was intraperitoneally administered to an animal in order to anesthetize the animal. Isoflurane (Escain, Mylan Inc.) inhalation anesthesia was performed as an adjunct to anesthesia. The skin on the upside of the knee joint was incised, exfoliation was performed between the rectus femoris muscle and the vastus lateralis muscle to expose the femur. At around 0.5 mm distal from the center of the femoral diaphysis, the diaphysis was completely cut in cross-section by a bone cutter (Osada Equipment Co., Ltd.). After that, an injection needle 21G was inserted into the bone marrow between the greater trochanter and the femur neck of the left femur, and the muscle and the skin were sutured with 2 to 3 stitches. For the prevention of post-operative suppuration, potassium penicillin G for injection (Meiji Seika Kaisha, Limited) was administered as an antibiotic, and the suture site of the skin was disinfected with povidone-iodine (Isodine®, Meiji Seika Kaisha, Limited). As the test substance, CNP derivative A (SEQ ID NO: 13: the SEQ ID NO: 157 of the publication of US patent application US 2010-305031, produced by a method described in the publication) was used for repeated subcutaneous administration at 10 or 100 nmol/kg once per day for 8 weeks. Vehicle was administered to the control group. On the next day after the administration end date, the left and right femurs and the left and right tibiae were resected. For the resected bone, the bone length, and the callus size in the fracture site were measured, the left and right femurs were subjected to soft X-ray radiography, and then the healing state in the fracture site was determined. After that, a three-point bending strength test was performed by using a bone strength measuring device MZ-500S (MARUTO INSTRUMENT CO., LTD.), and a bone strength testing system CTR win Ver. 1.21 (System Supply Co., Ltd.). The bone after finishing the measurements was fixed with 10% neutral buffered formalin, and the pathologic sample was prepared and observed. The administration was performed to a group of 14 rats including spare rats. At 2, 4, and 6 weeks after the administration, one from each of the cases was sampled for follow-up, further the one in the control group, which had shown nonunion-like symptoms, was excluded from the evaluation, and eventually the results were evaluated as a group of 10 rats.

[3] = system: rat femur fracture model; experiment: Rat femur fracture model (surgically cut femoral diaphysis), three-point bending bone strength test; conditions: for Break deformation / Break energy / Break strength / Maximum load / Stiffness (Δ70%-20%) / Break deformation, left/right ratio / Break energy, left/right ratio / Break strength, left/right ratio / Maximum load, left/right ratio / Stiffness (Δ70%-20%), left/right ratio: mean ± SD, N=10; for Break deformation, left/right ratio / Break energy, left/right ratio / Break strength, left/right ratio / Maximum load, left/right ratio / Stiffness (Δ70%-20%), left/right ratio: ratio of left/right femurs
Procedure: as §1

[4] = 10 nmol/kg, 8-week administration, left femur fracture site, grade 0-5, mean ± SD, N=10
[5] = 100 nmol/kg, 8-week administration, left femur fracture site, grade 0-5, mean ± SD, N=10
[6] = 100 nmol/kg, 8 weeks, compared to the control group
[7] = 10 nmol/kg s.c. once per day for 8 weeks, fractured left femur
[8] = 10 nmol/kg s.c. once per day for 8 weeks
[9] = 10 nmol/kg s.c. once per day for 8 weeks, untreated right femur
[10] = 100 nmol/kg s.c. once per day for 8 weeks, fractured left femur
[11] = 100 nmol/kg s.c. once per day for 8 weeks
[12] = 100 nmol/kg s.c. once per day for 8 weeks, untreated right femur

CNP derivative A: CNP (1-22) Ghrelin (12-28, E17D): SEQ ID NO: 13; SEQ ID NO: 157 of US 2010-305031 (GLSKGCFGLKLDRIGSMSGLGCVQQRKDSKKPPAKLQPR; Chimeric CNP J (SEQ ID NO157) of US2010-305031 and WO2009/142307, and CNP derivative A of current invention.)
Gene expression level of Sox9 in fractured left femur [1]: this high level was maintained | Callus Amount [2, 4]: 2.1 ± 1.0 Grade | Callus Cartilage [2, 4]: 1.5 ± 2.0 Grade | Callus Continuity [2, 4]: 3.2 ± 2.1 Grade | Cortical bone/bone marrow areas Cancellous bone [2, 4]: 2.9 ± 1.7 Grade | Cortical bone/bone marrow areas Cartilage [2, 4]: 0.9 ± 1.7 Grade | Cortical bone/bone marrow areas Connective tissue [2, 4]: 0.7 ± 1.6 Grade | Cortical bone/bone marrow areas Osteoclasts [2, 4]: 0.6 ± 1.1 Grade | Callus Amount [2, 5]: 2.3 ± 1.2 Grade | Cortical bone/bone marrow areas Cancellous bone [2, 5]: 3.0 ± 1.1 Grade | Cortical bone/bone marrow areas Continuity [2, 5]: 2.7 ± 1.8 Grade | Grade of cartilage formation [2, 6]: tendency for a decreasing grade of cartilage formation | Grade of ossification of the callus [2, 6]: tendency for an increasing grade of ossification of the callus | Repair of the bone cut region ([2]; overall conclusion of tissue observation, 8 weeks after fracture): promoted | Break deformation [3, 7]: 1.15 ± 0.58 mm | Break energy [3, 7]: 45.91 ± 26.15 N.mm | Break strength [3, 7]: 72.05 ± 30.40 N | Maximum load [3, 7]: 81.98 ± 34.64 N | Stiffness (Δ70%-20%) [3, 7]: 138.36 ± 89.14 N/mm | Break deformation, left/right ratio [3, 8]: 1.15 ± 0.57 | Break energy, left/right ratio [3, 8]: 0.75 ± 0.33 | Break strength, left/right ratio [3, 8]: 0.80 ± 0.33 | Maximum load, left/right ratio [3, 8]: 0.86 and 0.86 ± 0.35 | Stiffness (Δ70%-20%), left/right ratio [3, 8]: 0.75 ± 0.48 | Break deformation [3, 9]: 0.99 ± 0.15 mm | Break energy [3, 9]: 59.55 ± 12.33 N.mm | Break strength [3, 9]: 89.22 ± 6.58 N | Maximum load [3, 9]: 95.08 ± 5.29 N | Stiffness (Δ70%-20%) [3, 9]: 187.11 ± 32.64 N/mm | Break deformation [3, 10]: 1.04 ± 0.45 mm | Break energy [3, 10]: 53.90 ± 24.24 N.mm | Break strength [3, 10]: 80.02 ± 15.97 N | Maximum load [3, 10]: 87.59 ± 19.00 N | Stiffness (Δ70%-20%) [3, 10]: 162.09 ± 105.67 N/mm | Break deformation, left/right ratio [3, 11]: 1.02 ± 0.38 | Break energy, left/right ratio [3, 11]: 0.90 and 0.90 ± 0.36 | Break strength, left/right ratio [3, 11]: 1.06 ± 0.33 | Maximum load, left/right ratio [3, 11]: 1.03 and 1.03 ± 0.28 | Stiffness (Δ70%-20%), left/right ratio [3, 11]: 0.85 ± 0.64 | Break deformation [3, 12]: 1.01 ± 0.17 mm | Break energy [3, 12]: 60.82 ± 13.73 N.mm | Break strength [3, 12]: 77.75 ± 10.46 N | Maximum load [3, 12]: 86.89 ± 10.96 N | Stiffness (Δ70%-20%) [3, 12]: 200.64 ± 43.22 N/mm | Break energy in a fracture site of the left femur, dose dependence ([3]; 10 and 100 nmol/kg s.c. once per day for 8 weeks, versus vehicle): increased CNP derivative A-dose dependently

Reference: US20150125457A1, “BONE REPAIR PROMOTER” (DAIICHI SANKYO COMPANY, LIMITED, priority 2012, published 2015)
